Patent US20260001928A1 (CORTERIA PHARMACEUTICALS, priority 2022, published 2026)
*1 amine or outer side, *2 acyl side, *3 side chain or, on linkers, in order; H or OH if unused. Where a SMILES comes first, the peptide text is derived from it. Side-chain parts run from the residue outwards. [ ]: non-standard residue; d: D form. The star is where a group is joined. C20 diacid = O=C(O)CCCCCCCCCCCCCCCCCCC(=O)*; C16 diacid = O=C(O)CCCCCCCCCCCCCCC(=O)*; γGlu = O=C(O)[C@H](CCC(=O)[*:2])N[*:1]; NMeI = CC[C@H](C)[C@H](NC)C(=O)O; Decanoyl = CCCCCCCCCC(=O)*; AEEA = NCCOCCOCC(=O)O; Aib = CC(C)(N)C(=O)O

Tested on: human LAD2 cells
Type: cell-based
How it was run: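 Mast cell degranulation: cells exposed to peptides for 30 min at final concentrations from 50, 100 or 300 down to 0.1 or 0.001 μM, with 0.5% DMSO where used, in biological duplicates. β-hexosaminidase release was read with a fluorogenic 4-methylumbelliferyl substrate as supernatant/(supernatant + Triton-lysed pellet) × 100. EC50 came from a 4-parameter sigmoidal fit.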

| Compound | EC50 |
| --- | --- |
| CC[C@H](C)[C@H](NC)C(=O)N[C@H](C(=O)N[C@@H](CC(C)C)C(=O)N[C@@H](CO)C(=O)N[C@@H](CC(C)C)C(=O)N[C@@H](CC(=O)O)C(=O)N[C@@H](C(=O)N1CCC[C@H]1C(=O)N[C@H](C(=O)N[C@@H](CCCCN)C(=O)N[C@@H](CC(C)C)C(=O)N[C@@H](CCCCNC(=O)COCCOCCNC(=O)COCCOCCNC(=O)CC[C@H](NC(=O)CCCCCCCCCCCCCCCCCCC(=O)O)C(=O)O)C(=O)N[C@@H](CCCCN)C(=O)N[C@H](C(=O)N[C@@H](CC(C)C)C(=O)N[C@@H](CC(C)C)C(=O)N[C@@H](CCC(=O)O)C(=O)N[C@@H](CCC(N)=O)C(=O)N[C@@H](CCC(=O)O)C(=O)N[C@@H](CCCCN)C(=O)N[C@@H](CCC(N)=O)C(=O)N[C@@H](CCCCN)C(=O)N[C@@H](CCC(=O)O)C(=O)N[C@@H](CCC(N)=O)C(=O)N[C@@H](CCCNC(=N)N)C(=O)N[C@@H](CCC(=O)O)C(=O)N[C@@H](CCC(N)=O)C(=O)N[C@@H](C)C(=O)N[C@@H](CCC(=O)O)C(=O)N[C@H](C(=O)N[C@@H](CC(N)=O)C(=O)NC(C)(C)C(=O)N[C@@H](CCC(N)=O)C(=O)N[C@H](C(=O)N[C@@H](CC(C)C)C(=O)N[C@@H](C)C(=O)N[C@@H](CCC(N)=O)C(=O)N[C@H](C(N)=O)C(C)C)[C@@H](C)CC)[C@@H](C)O)[C@@H](C)CC)[C@@H](C)CC)C(C)C)C(C)C [Cmpd 237] (H-[NMeI]VLSLD[dV]PIKLK([AEEA-AEEA-γGlu-C20 diacid])KILLEQEKQKEQREQAETN[Aib]QILAQV-NH2) | > 300 µM |
| CC[C@H](C)[C@H](NC(C)=O)C(=O)N[C@H](C(=O)N[C@@H](CC(C)C)C(=O)N[C@@H](CO)C(=O)N[C@@H](CC(C)C)C(=O)N[C@@H](CC(=O)O)C(=O)N[C@@H](C(=O)N1CCC[C@H]1C(=O)N[C@H](C(=O)N[C@@H](CCCCN)C(=O)N[C@@H](CC(C)C)C(=O)N[C@@H](CCCCNC(=O)COCCOCCNC(=O)COCCOCCNC(=O)CC[C@H](NC(=O)CCCCCCCCCCCCCCCCCCC(=O)O)C(=O)O)C(=O)N[C@@H](CCCCN)C(=O)N[C@H](C(=O)N[C@@H](CC(C)C)C(=O)N[C@@H](CC(C)C)C(=O)N[C@@H](CCC(=O)O)C(=O)N[C@@H](CCC(N)=O)C(=O)N[C@@H](CCC(=O)O)C(=O)N[C@@H](CCCCN)C(=O)N[C@@H](CCC(N)=O)C(=O)N[C@@H](CCCCN)C(=O)N[C@@H](CCC(=O)O)C(=O)N[C@@H](CCC(N)=O)C(=O)N[C@@H](CCCNC(=N)N)C(=O)N[C@@H](CCC(=O)O)C(=O)N[C@@H](CCC(N)=O)C(=O)N[C@@H](C)C(=O)N[C@@H](CCC(=O)O)C(=O)N[C@H](C(=O)N[C@@H](CC(N)=O)C(=O)NC(C)(C)C(=O)N[C@@H](CCC(N)=O)C(=O)N[C@H](C(=O)N[C@@H](CC(C)C)C(=O)N[C@@H](C)C(=O)N[C@@H](CCC(N)=O)C(=O)N[C@H](C(N)=O)C(C)C)[C@@H](C)CC)[C@@H](C)O)[C@@H](C)CC)[C@@H](C)CC)C(C)C)C(C)C [Cmpd 236] (Ac-IVLSLD[dV]PIKLK([AEEA-AEEA-γGlu-C20 diacid])KILLEQEKQKEQREQAETN[Aib]QILAQV-NH2) | 74.1 µM |
| CC[C@H](C)[C@H](NC(C)=O)C(=O)N[C@H](C(=O)N[C@@H](CC(C)C)C(=O)N[C@@H](CO)C(=O)N[C@@H](CC(C)C)C(=O)N[C@@H](CC(=O)O)C(=O)N[C@@H](C(=O)N1CCC[C@H]1C(=O)N[C@H](C(=O)N[C@@H](CCCCN)C(=O)N[C@@H](CC(C)C)C(=O)N[C@@H](CCCCNC(=O)CC[C@H](NC(=O)CCCCCCCCCCCCCCC(=O)O)C(=O)O)C(=O)N[C@@H](CCCCN)C(=O)N[C@H](C(=O)N[C@@H](CC(C)C)C(=O)N[C@@H](CC(C)C)C(=O)N[C@@H](CCC(=O)O)C(=O)N[C@@H](CCC(N)=O)C(=O)N[C@@H](CCC(=O)O)C(=O)N[C@@H](CCCCN)C(=O)N[C@@H](CCC(N)=O)C(=O)N[C@@H](CCCCN)C(=O)N[C@@H](CCC(=O)O)C(=O)N[C@@H](CCC(N)=O)C(=O)N[C@@H](CCCNC(=N)N)C(=O)N[C@@H](CCC(=O)O)C(=O)N[C@@H](CCC(N)=O)C(=O)N[C@@H](C)C(=O)N[C@@H](CCC(=O)O)C(=O)N[C@H](C(=O)N[C@@H](CC(N)=O)C(=O)NC(C)(C)C(=O)N[C@@H](CCC(N)=O)C(=O)N[C@H](C(=O)N[C@@H](CC(C)C)C(=O)N[C@@H](C)C(=O)N[C@@H](CCC(N)=O)C(=O)N[C@H](C(N)=O)C(C)C)[C@@H](C)CC)[C@@H](C)O)[C@@H](C)CC)[C@@H](C)CC)C(C)C)C(C)C [Cmpd 168] (Ac-IVLSLD[dV]PIKLK([γGlu-C16 diacid])KILLEQEKQKEQREQAETN[Aib]QILAQV-NH2) | > 300 µM |
| CC[C@H](C)[C@H](NC(C)=O)C(=O)N[C@H](C(=O)N[C@@H](CC(C)C)C(=O)N[C@@H](CO)C(=O)N[C@@H](CC(C)C)C(=O)N[C@@H](CC(=O)O)C(=O)N[C@@H](C(=O)N1CCC[C@H]1C(=O)N[C@H](C(=O)N[C@@H](CCCCN)C(=O)N[C@@H](CC(C)C)C(=O)N[C@@H](CCCCNC(=O)CC[C@H](NC(=O)CCCCCCCCCCCCCCCCCCC(=O)O)C(=O)O)C(=O)N[C@@H](CCCCN)C(=O)N[C@H](C(=O)N[C@@H](CC(C)C)C(=O)N[C@@H](CC(C)C)C(=O)N[C@@H](CCC(=O)O)C(=O)N[C@@H](CCC(N)=O)C(=O)N[C@@H](CCC(=O)O)C(=O)N[C@@H](CCCCN)C(=O)N[C@@H](CCC(N)=O)C(=O)N[C@@H](CCCCN)C(=O)N[C@@H](CCC(=O)O)C(=O)N[C@@H](CCC(N)=O)C(=O)N[C@@H](CCCNC(=N)N)C(=O)N[C@@H](CCC(=O)O)C(=O)N[C@@H](CCC(N)=O)C(=O)N[C@@H](C)C(=O)N[C@@H](CCC(=O)O)C(=O)N[C@H](C(=O)N[C@@H](CC(N)=O)C(=O)NC(C)(C)C(=O)N[C@@H](CCC(N)=O)C(=O)N[C@H](C(=O)N[C@@H](CC(C)C)C(=O)N[C@@H](C)C(=O)N[C@@H](CCC(N)=O)C(=O)N[C@H](C(N)=O)C(C)C)[C@@H](C)CC)[C@@H](C)O)[C@@H](C)CC)[C@@H](C)CC)C(C)C)C(C)C [Cmpd 213] (Ac-IVLSLD[dV]PIKLK([γGlu-C20 diacid])KILLEQEKQKEQREQAETN[Aib]QILAQV-NH2) | > 300 µM |
| CCCCCCCCCC(=O)N[C@H](C(=O)N[C@@H](CC(C)C)C(=O)N[C@@H](CO)C(=O)N[C@@H](CC(C)C)C(=O)N[C@@H](CC(=O)O)C(=O)N[C@@H](C(=O)N1CCC[C@H]1C(=O)N[C@H](C(=O)N[C@@H](CCCCN)C(=O)N[C@@H](CC(C)C)C(=O)N[C@@H](CCCCNC(=O)CC[C@H](NC(=O)CCCCCCCCCCCCCCCCCCC(=O)O)C(=O)O)C(=O)N[C@@H](CCCCN)C(=O)N[C@H](C(=O)N[C@@H](CC(C)C)C(=O)N[C@@H](CC(C)C)C(=O)N[C@@H](CCC(=O)O)C(=O)N[C@@H](CCC(N)=O)C(=O)N[C@@H](CCC(=O)O)C(=O)N[C@@H](CCCCN)C(=O)N[C@@H](CCC(N)=O)C(=O)N[C@@H](CCCCN)C(=O)N[C@@H](CCCCN)C(=O)N[C@@H](CCC(N)=O)C(=O)N[C@@H](CCCNC(=N)N)C(=O)N[C@@H](CCC(=O)O)C(=O)N[C@@H](CCC(N)=O)C(=O)N[C@@H](C)C(=O)N[C@@H](CCC(=O)O)C(=O)N[C@H](C(=O)N[C@@H](CC(N)=O)C(=O)NC(C)(C)C(=O)N[C@@H](CCC(N)=O)C(=O)N[C@H](C(=O)N[C@@H](CC(C)C)C(=O)N[C@@H](C)C(=O)N[C@@H](CCC(N)=O)C(=O)N[C@H](C(N)=O)C(C)C)[C@@H](C)CC)[C@@H](C)O)[C@@H](C)CC)[C@@H](C)CC)C(C)C)C(C)C [Cmpd 223] (Decanoyl-VLSLD[dV]PIKLK([γGlu-C20 diacid])KILLEQEKQKKQREQAETN[Aib]QILAQV-NH2) | > 300 µM |
| CC[C@H](C)[C@H](NC)C(=O)N[C@H](C(=O)N[C@@H](CC(C)C)C(=O)N[C@@H](CO)C(=O)N[C@@H](CC(C)C)C(=O)N[C@@H](CC(=O)O)C(=O)N[C@@H](C(=O)N1CCC[C@H]1C(=O)N[C@H](C(=O)N[C@@H](CCCCN)C(=O)N[C@@H](CC(C)C)C(=O)N[C@@H](CCCCNC(=O)CC[C@H](NC(=O)CCCCCCCCCCCCCCCCCCC(=O)O)C(=O)O)C(=O)N[C@@H](CCCCN)C(=O)N[C@H](C(=O)N[C@@H](CC(C)C)C(=O)N[C@@H](CC(C)C)C(=O)N[C@@H](CCC(=O)O)C(=O)N[C@@H](CCC(N)=O)C(=O)N[C@@H](CCC(=O)O)C(=O)N[C@@H](CCCCN)C(=O)N[C@@H](CCC(N)=O)C(=O)N[C@@H](CCCCN)C(=O)N[C@@H](CCC(=O)O)C(=O)N[C@@H](CCC(N)=O)C(=O)N[C@@H](CCCNC(=N)N)C(=O)N[C@@H](CCC(=O)O)C(=O)N[C@@H](CCC(N)=O)C(=O)N[C@@H](C)C(=O)N[C@@H](CCC(=O)O)C(=O)N[C@H](C(=O)N[C@@H](CC(N)=O)C(=O)NC(C)(C)C(=O)N[C@@H](CCC(N)=O)C(=O)N[C@H](C(=O)N[C@@H](CC(C)C)C(=O)N[C@@H](C)C(=O)N[C@@H](CCC(N)=O)C(=O)N[C@H](C(N)=O)C(C)C)[C@@H](C)CC)[C@@H](C)O)[C@@H](C)CC)[C@@H](C)CC)C(C)C)C(C)C [Cmpd 218] (H-[NMeI]VLSLD[dV]PIKLK([γGlu-C20 diacid])KILLEQEKQKEQREQAETN[Aib]QILAQV-NH2) | > 300 µM |
| CC[C@H](C)[C@H](N)C(=O)N[C@H](C(=O)N[C@@H](CC(C)C)C(=O)N[C@@H](CO)C(=O)N[C@@H](CC(C)C)C(=O)N[C@@H](CC(=O)O)C(=O)N[C@H](C(=O)N1CCC[C@H]1C(=O)N[C@H](C(=O)N[C@@H](CCCCN)C(=O)N[C@@H](CC(C)C)C(=O)N[C@@H](CCCCNC(=O)CC[C@H](NC(=O)CCCCCCCCCCCCCCC(=O)O)C(=O)O)C(=O)N[C@@H](CCC(N)=O)C(=O)N[C@H](C(=O)N[C@@H](CC(C)C)C(=O)N[C@@H](CC(C)C)C(=O)N[C@@H](CCCCN)C(=O)N[C@@H](CCC(N)=O)C(=O)N[C@@H](CCC(=O)O)C(=O)N[C@@H](CCCNC(=N)N)C(=O)N[C@@H](CCC(N)=O)C(=O)N[C@@H](CCCCN)C(=O)N[C@@H](CCCCN)C(=O)N[C@@H](CCC(N)=O)C(=O)N[C@@H](CCCNC(=N)N)C(=O)N[C@@H](CCC(=O)O)C(=O)N[C@@H](CCC(N)=O)C(=O)N[C@@H](C)C(=O)N[C@@H](CCC(=O)O)C(=O)N[C@@H](CCCCN)C(=O)N[C@@H](CC(N)=O)C(=O)N[C@@H](CCCCN)C(=O)N[C@@H](CCC(N)=O)C(=O)N[C@H](C(=O)N[C@@H](CC(C)C)C(=O)N[C@@H](CCC(=O)O)C(=O)N[C@@H](CCC(N)=O)C(=O)N[C@H](C(N)=O)C(C)C)[C@@H](C)CC)[C@@H](C)CC)[C@@H](C)CC)C(C)C)C(C)C [151 (comp)] (H-IVLSLDVPIKLK([γGlu-C16 diacid])QILLKQERQKKQREQAEKNKQILEQV-NH2) | 32.9 µM |
